According to article PMC8745345, “Hydroxy Pentacyclic Triterpene Acid, Kaempferol, Inhibits the Human 5-Hydroxytryptamine Type 3A Receptor Activity” (International Journal of Molecular Sciences, 2022):
Positions count from the first letter of the chain named.

How the values were obtained:
Type in all cases: cell-based
[1] = target: T1, human 5-HT3A receptor I210A mutant (Homo sapiens, UniProt P46098); assay: Two-electrode voltage clamp, I5-HT inhibition, I210A mutant; conditions: −80 mV
T1 sequence (P46098 24-478): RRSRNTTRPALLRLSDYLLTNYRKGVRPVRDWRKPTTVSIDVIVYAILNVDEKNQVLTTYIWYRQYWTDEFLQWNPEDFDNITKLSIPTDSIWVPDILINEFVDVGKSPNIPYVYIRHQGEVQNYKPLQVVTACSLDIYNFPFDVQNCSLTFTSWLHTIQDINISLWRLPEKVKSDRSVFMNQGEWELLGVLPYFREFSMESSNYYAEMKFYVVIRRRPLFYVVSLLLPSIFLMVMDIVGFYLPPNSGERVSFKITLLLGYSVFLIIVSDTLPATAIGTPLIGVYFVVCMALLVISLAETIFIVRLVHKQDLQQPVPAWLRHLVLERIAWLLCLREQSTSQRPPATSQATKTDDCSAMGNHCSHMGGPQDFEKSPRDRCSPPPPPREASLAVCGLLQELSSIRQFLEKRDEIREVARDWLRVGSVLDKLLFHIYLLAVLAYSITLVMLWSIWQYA
Experimental: Human 5-HT3A receptor cDNA was linearized using restriction enzyme XhoI. In vitro transcription was performed using an mMESSAGE mMACHINE T7 Transcription Kit (Thermo Fisher Scientific, Waltham, MA, USA). The final mRNA product was dissolved in 1X Diethyl Pyrocarbonate (RNase-free water) at a final concentration of 1 μg/μL and kept in a deep-freezer at −80 °C until used.
Xenopus oocytes were used in this study as cells for expression of human 5-HT3A receptor. All female frogs used in this experiment were obtained from the Korean Xenopus Resource Center for Research (KXRCR000001). Xenopus management followed the guideline of Chonnam National University institution guidelines (CNU IACUC-YB-2016-07, July 2016). Xenopus oocytes were extracted during ice incubation state and isolated as single oocytes using collagenase II (2 mg/mL) in OR2 buffer (82.5 mM NaCl, 2 mM KCl, 1 mM MgCl2, 5 mM HEPES, pH 7.4). […]
The voltage relationship experiment for confirming the relationship between induce-inward current and voltage, the voltage was varied from −80 mV to +60 mV using a ramp protocol. […] All recording data were analyzed using Clampfit 9.0 (Molecular Devices, San Jose, CA, USA). […]
All presented experiments were performed at least three times for scientific verification. […] Induced-inward current data were analyzed with SigmaPlot 10.0 software (Systat Software, Inc., San Jose, CA, USA). […]

[2] = target: T2, human 5-HT3A receptor (wild type) (Homo sapiens, UniProt P46098); assay: Two-electrode voltage clamp, inhibition of serotonin-induced inward current (I5-HT) in Xenopus oocytes expressing wild-type receptor
T2 construct: expressed in transfected cells; host or cells: Xenopus oocytes injected with in vitro transcribed mRNA
T2 sequence (P46098 24-478): T1 sequence (P46098 24-478)
Experimental: Xenopus oocytes were used in this study as cells for expression of human 5-HT3A receptor. All female frogs used in this experiment were obtained from the Korean Xenopus Resource Center for Research (KXRCR000001). […] Xenopus oocytes were extracted during ice incubation state and isolated as single oocytes using collagenase II (2 mg/mL) in OR2 buffer (82.5 mM NaCl, 2 mM KCl, 1 mM MgCl2, 5 mM HEPES, pH 7.4). Isolated oocytes were incubated with ND96 incubation buffer (96 mM NaCl, 2 mM KCl, 1 mM MgCl2, 1.8 mM CaCl2, 5 mM HEPES, 2.5 mM sodium pyruvate, and 50 mg/mL gentamycin, pH 7.4) at 18 °C until the experiment was performed. Human 5-HT3A receptor mRNA was injected into oocytes using a nanoinjector (Drummond Scientific, Broomall, PA, USA) with a mineral-filled 10 μL microdispenser (VWR, Piscataway, NJ, USA).
To confirm the KAE activity on the human 5-HT3A receptor, a two-electrode voltage clamp (OC-725C; Warner Instruments, Hamden, CT, USA) with a Digitata 1550A was used. For the experiment, induced-inward current was converted to digital data with pClamp 10 software (Axon Instruments, Union City, CA, USA). All experiments were performed at room temperature using an oocyte clamp equipped with Digidata. The membrane holding potential was −80 mV.
The voltage relationship experiment for confirming the relationship between induce-inward current and voltage, the voltage was varied from −80 mV to +60 mV using a ramp protocol. Each microelectrode was filled with 3 M KCl having a resistance of 0.2 MΩ. Serotonin and KAE applied in the experiment were diluted in ND96 bath solution (96 mM NaCl, 2 mM KCl, 1 mM MgCl2, 1.8 mM CaCl2, and 5 mM HEPES, pH 7.5) to specified concentration. The rate of application of the reagent was 2 mL per minute. All recording data were analyzed using Clampfit 9.0 (Molecular Devices, San Jose, CA, USA).
All presented experiments were performed at least three times for scientific verification. Data are presented as mean ± S.E.M (standard error of the mean). Induced-inward current data were analyzed with SigmaPlot 10.0 software (Systat Software, Inc., San Jose, CA, USA). To prepare a sigmoid prediction curve for induced peak data, Hill equation reflecting the binding to ligand and macromolecule was obtained with an OriginPro 9.0 software (Origin, MA, USA). The formula used was y = Vmin + (Vmax − Vmin) × [x]^n/([IC50]^n + [x]^n), where Vmin was the minimum current, Vmax was the maximum current, IC50 was the maximum half inhibitory effect percentage of inhibitory activation by KAE, [x] was the concentration of serotonin or KAE, and n was the interaction-coefficient. Statistical significance was considered when p-value was less than or equal to 0.05 (p ≤ 0.05).

[3] = target: T3, human 5-HT3A receptor F199A mutant (Homo sapiens, UniProt P46098, F221A); assay: Two-electrode voltage clamp, I5-HT inhibition, F199A mutant; conditions: −80 mV
T3 sequence (P46098 24-478 F221A): T1 sequence (P46098 24-478) with F198A
Experimental: Xenopus oocytes were used in this study as cells for expression of human 5-HT3A receptor. All female frogs used in this experiment were obtained from the Korean Xenopus Resource Center for Research (KXRCR000001). […] Isolated oocytes were incubated with ND96 incubation buffer (96 mM NaCl, 2 mM KCl, 1 mM MgCl2, 1.8 mM CaCl2, 5 mM HEPES, 2.5 mM sodium pyruvate, and 50 mg/mL gentamycin, pH 7.4) at 18 °C until the experiment was performed. Human 5-HT3A receptor mRNA was injected into oocytes using a nanoinjector (Drummond Scientific, Broomall, PA, USA) with a mineral-filled 10 μL microdispenser (VWR, Piscataway, NJ, USA).
For the experiment, induced-inward current was converted to digital data with pClamp 10 software (Axon Instruments, Union City, CA, USA). All experiments were performed at room temperature using an oocyte clamp equipped with Digidata. The membrane holding potential was −80 mV.
The voltage relationship experiment for confirming the relationship between induce-inward current and voltage, the voltage was varied from −80 mV to +60 mV using a ramp protocol. Each microelectrode was filled with 3 M KCl having a resistance of 0.2 MΩ. […] The rate of application of the reagent was 2 mL per minute. All recording data were analyzed using Clampfit 9.0 (Molecular Devices, San Jose, CA, USA).
Point mutation was performed using Pfu DNA polymerase (Quikchange II Site-Directed Mutagenesis Kit). Chimeric primer design for PCR was performed under appropriate primer design guidelines. […]

[4] = read-out: Emax of serotonin concentration-response

O=c1c(O)c(-c2ccc(O)cc2)oc2cc(O)cc(O)c12 [KAE, kaempferol]
IC50 [1]: 35.4 ± 9.7 µM
n (Hill coefficient) [1]: 1.8 ± 0.5
Maximum-inhibitory percentage (Imax) [2]: 79.3 ± 4.5%
Vmax [2]: 79.3 ± 4.6%
efficacy of antagonist against I5-HT(100uM) of 5-HT3A [2]: 79.3 ± 4.6%
Hill coefficient ([2]; Hill equation fit, Figure 1D, serotonin 100 μM, −80 mV): 0.9 ± 0.1
competitive or non-competitive manner of inhibition ([2]; KAE fixed, serotonin 1–300 μM, Figure 2B): non-competitive manner
IC50 ([2]; Wild type, −80 mV, Table 1): 23.4 ± 8.3 µM
n (Hill coefficient) ([2]; Wild type, −80 mV, Table 1): 1.2 ± 0.3
Emax at 10 µM [2, 4]: 79.3 ± 4.8%
Emax at 100 µM [2, 4]: 37.7 ± 1.2%
inhibitory manner (reversibility) ([2]; serotonin and KAE 100 μM, Figure 1B): reversible inhibitory manner
voltage dependence of inhibition ([2]; voltage ramp −80 to +60 mV, KAE 10 and 100 μM, serotonin 100 μM): voltage-independent manner
n (Hill coefficient) [3]: 1.4 ± 0.4
IC50 ([3]; Table 1): 21.5 ± 5.7 µM
Vmax ([3]; Table 1): 53.3 ± 10.4%
